Results on 3 compounds are retold here after patent US8802679B2, “Glycine compound” (Astellas Pharma Inc., priority 2009, dated 2014).

What is called IC50 is the point on the concentration scale where inhibition reaches its midpoint. The low end stands for inhibition by little substance, the high end for a need for much substance.

Where a name gives a salt, the structure may show the parent alone.

Assay [1] concerns the target human VAP-1 enzyme (SSAO) (Homo sapiens (Human), UniProt Q16853). Nature of the assay: Inhibitory effect on human VAP-1 enzyme (SSAO) activity, radiochemistry-enzymatic assay with 14C-benzylamine. Conditions: enzyme from CHO cells expressing human VAP-1; 14C-benzylamine 1×10^−5 mol/L. Format: biochemical. The protocol: Inhibitory Effect of Compound on Human VAP-1 Enzyme (SSAO) Activity
(§1) A human VAP-1 enzyme (SSAO) activity was measured by a radiochemistry-enzymatic assay using ^14C-benzylamine as an artificial substrate. An enzyme suspension prepared from CHO (Chinese Hamster Ovary) cells stably expressing a human VAP-1 enzyme (SSAO) was preincubated with the compound of the present invention in a 96-well microplate at room temperature for 30 minutes. Subsequently, the enzyme suspension was incubated with ^14C-benzylamine (a final concentration of 1×10^−5 mol/L) to a final volume of […] at 37° C. for 1 hour. The enzymatic reaction was stopped by the addition of 2 mol/L (50 μL) of citric acid. The oxidation products were extracted directly in a 200-μL toluene scintillator, and the radioactivity was measured with a scintillation spectrometer.
(§2) In addition, the inhibitory activity is expressed in IC50 (nmol/L).

The next assay addresses rat VAP-1 enzyme (SSAO) (Rattus norvegicus (Rat), UniProt O08590). In words: Inhibitory effect on rat VAP-1 enzyme (SSAO) activity, radiochemistry-enzymatic assay with 14C-benzylamine. It counts as biochemical. Conditions: enzyme from CHO cells expressing rat VAP-1; 14C-benzylamine 1×10^−5 mol/L. The protocol: Inhibitory Effect of Compound on Rat VAP-1 Enzyme (SSAO) Activity
as §1, with “rat VAP-enzyme 1” for “human VAP-1 enzyme”
as §2

The test system of assay [2] is VAP-1 enzyme activity in plasma. Nature of the assay: Plasma VAP-1 enzyme activity after oral administration to rats (radio-enzyme assay). It counts as in vivo, Wistar male rats. Conditions: rat, oral 1 mg/kg; for Inhibition Ratio (%) of plasma VAP-1 activity, 1 h: 1 h after administration; for Inhibition Ratio (%) of plasma VAP-1 activity, 3 h: 3 h after administration; for Inhibition Ratio (%) of plasma VAP-1 activity, 6 h: 6 h after administration; for Inhibition Ratio (%) of plasma VAP-1 activity, 12 h: 12 h after administration. Here is the method: Eight-week to twelve-week Wistar male rats were fasted for 20 hours, and orally administered with a test drug (1 mg/1 kg). Heparin blood collection from the tail vein was performed immediately before the administration, and at 1 h, 3 h, 6 h, and 12 h after the administration. The resulting blood was subjected to centrifugation at 14000 rpm for 5 minutes to separate plasma, and the VAP-1 enzyme activity in the resulting plasma was measured by a radio-enzyme assay method.
For the radio-enzyme assay method, ^14C-benzylamine which is a synthetic substrate (10 μM) was reacted with the resulting plasma at 37° C., and the resulting metabolite was extracted with a mixture of toluene/ethyl acetate. The radioactivity was measured and taken as a VAP-1 enzyme activity in the plasma. The effect of the test drug was calculated from the ratio (%) of the VAP-1 activity after the administration of the test drug relative to the VAP-1 activity in the plasma immediately before the administration (100%).

Chain of human VAP-1 enzyme (SSAO) (Q16853 whole entry): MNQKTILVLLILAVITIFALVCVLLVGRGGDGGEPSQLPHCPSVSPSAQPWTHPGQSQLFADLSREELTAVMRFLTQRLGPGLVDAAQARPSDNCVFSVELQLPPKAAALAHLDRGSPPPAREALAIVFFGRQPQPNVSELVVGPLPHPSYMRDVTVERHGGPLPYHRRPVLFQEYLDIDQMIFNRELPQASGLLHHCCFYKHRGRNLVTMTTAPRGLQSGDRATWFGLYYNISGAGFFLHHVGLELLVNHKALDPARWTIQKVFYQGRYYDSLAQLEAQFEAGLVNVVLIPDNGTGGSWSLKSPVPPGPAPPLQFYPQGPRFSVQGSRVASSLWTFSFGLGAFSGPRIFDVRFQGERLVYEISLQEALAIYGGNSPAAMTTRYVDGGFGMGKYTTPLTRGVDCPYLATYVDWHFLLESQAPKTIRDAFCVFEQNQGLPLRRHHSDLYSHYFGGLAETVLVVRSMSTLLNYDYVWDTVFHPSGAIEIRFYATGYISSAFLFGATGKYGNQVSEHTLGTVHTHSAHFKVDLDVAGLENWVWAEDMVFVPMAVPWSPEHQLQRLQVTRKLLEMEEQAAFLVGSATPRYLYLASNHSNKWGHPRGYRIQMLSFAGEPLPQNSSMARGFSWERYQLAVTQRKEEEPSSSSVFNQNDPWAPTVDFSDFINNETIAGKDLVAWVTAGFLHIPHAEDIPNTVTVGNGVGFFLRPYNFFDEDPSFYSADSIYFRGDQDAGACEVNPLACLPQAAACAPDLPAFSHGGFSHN
Chain of rat VAP-1 enzyme (SSAO) (O08590 whole entry): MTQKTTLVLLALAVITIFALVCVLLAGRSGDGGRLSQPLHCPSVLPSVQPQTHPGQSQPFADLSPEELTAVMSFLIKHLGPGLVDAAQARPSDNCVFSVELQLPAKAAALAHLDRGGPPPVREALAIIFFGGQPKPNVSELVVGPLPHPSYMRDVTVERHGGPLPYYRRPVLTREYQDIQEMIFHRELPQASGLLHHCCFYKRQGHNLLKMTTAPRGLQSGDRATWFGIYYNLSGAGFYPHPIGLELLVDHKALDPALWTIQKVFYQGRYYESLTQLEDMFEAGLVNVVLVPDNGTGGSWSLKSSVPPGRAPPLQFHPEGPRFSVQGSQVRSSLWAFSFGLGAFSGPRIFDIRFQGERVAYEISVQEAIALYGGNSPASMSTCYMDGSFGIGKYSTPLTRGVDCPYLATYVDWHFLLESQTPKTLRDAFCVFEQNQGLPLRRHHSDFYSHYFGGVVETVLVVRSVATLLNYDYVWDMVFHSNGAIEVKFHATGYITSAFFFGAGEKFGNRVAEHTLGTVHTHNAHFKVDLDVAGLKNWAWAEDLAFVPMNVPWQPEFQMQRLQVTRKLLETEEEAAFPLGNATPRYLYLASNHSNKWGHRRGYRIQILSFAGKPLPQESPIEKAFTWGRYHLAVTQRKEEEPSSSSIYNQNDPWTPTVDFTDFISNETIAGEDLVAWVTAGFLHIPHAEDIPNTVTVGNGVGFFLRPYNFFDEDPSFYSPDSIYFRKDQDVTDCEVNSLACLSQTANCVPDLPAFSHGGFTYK

The compound `CN(Cc1cccc(-c2cnc(N3CCOCC3)nc2)c1)C(=O)CN` [Example 69, N-methyl-N-[3-(2-morpholin-4-ylpyrimidin-5-yl)benzyl]glycinamide L-tartrate] returned a half-inhibitory concentration (IC50) in assay [1] of 32 nM. The same compound yielded a half-maximal inhibitory concentration (IC50) against rat VAP-1 enzyme (SSAO) of 9.8 nM. In assay [2], the “Inhibition Ratio (%) of plasma VAP-1 activity, 1 h” value (“Inhibition Ratio (%) … 1 h” below) was determined as 72%; the “Inhibition Ratio (%) of plasma VAP-1 activity, 3 h” value (from here on “Inhibition Ratio (%) … 3 h”) was 56%; the “Inhibition Ratio (%) of plasma VAP-1 activity, 6 h” value (shortened to “Inhibition Ratio (%) … 6 h”) was determined as 39%; the “Inhibition Ratio (%) of plasma VAP-1 activity, 12 h” value (“Inhibition Ratio (%) … 12 h” below) came to 24%.
Regarding `CN(Cc1cccc(-c2cnc(N3CCN(c4ccc(C#N)nc4)CC3)nc2)c1)C(=O)CN` [Example 261, N-(3-{2-[4-(6-cyanopyridin-3-yl)piperazin-1-yl]pyrimidin-5-yl}benzyl)-N-methylglycinamide L-tartrate], the concentration for half-maximal inhibition (IC50) in assay [1] was 17 nM. Also, on rat VAP-1 enzyme (SSAO), the half-inhibitory concentration (IC50) is 21 nM. Further, in assay [2], the “Inhibition Ratio (%) … 1 h” value worked out at 36%; the “Inhibition Ratio (%) … 3 h” value is listed as 44%; the “Inhibition Ratio (%) … 6 h” value came out at 45%; the “Inhibition Ratio (%) … 12 h” value came to 32%.
Compound `CN(Cc1cccc(-c2cnc(N3CCN(c4ccc(C(=O)O)cc4Cl)CC3)nc2)c1)C(=O)CN` [Example 263, 3-chloro-4-{4-[5-(3-{[glycyl(methyl)amino)methyl}phenyl)pyrimidin-2-yl]piperazin-1-yl}benzoic acid dihydrochloride] yielded an IC50 in assay [1] of 25 nM. The 50% inhibitory concentration (IC50) on rat VAP-1 enzyme (SSAO) is 15 nM. Besides, in assay [2], the “Inhibition Ratio (%) … 1 h” value is given as 97%; the “Inhibition Ratio (%) … 3 h” value stood at 95%; the “Inhibition Ratio (%) … 6 h” value amounted to 80%; the “Inhibition Ratio (%) … 12 h” value is recorded as 75%.
